The source of these data is patent US9085587B2, “Inhibitors of hepatitis C virus” (priority 2010, dated 2015).

The structures appear in SMILES notation. Like-named read-outs stand apart in the source and are kept apart here.

Common to all, as to format: cell-based
The test system of one assay is HCV 2a. Description: HCV 2a replicon assay (similar to the 1b replicon assay). Particulars: Hepatitis C virus; cell marked (HCV genotype 2a replicon); read-out: Inhibition of HCV genotype 2a replicon. The protocol: (§1) Compounds of the invention can inhibit multiple genotypes of HCV selected but not limited to 1a, 1b, 2a, 3a, and 4a. The EC50s are measured in the corresponding replicon assays that are similar to HCV 1b replicon assay as described above.
(§2) The biological activity against HCV 1b, 1a, or 2a is indicated as being *, **, ***, or ****, which corresponds to EC50 ranges of EC50>1000 nM, 100 nM<EC50≦1000 nM, 10 nM<EC50≦100 nM, or EC50≦10 nM, respectively. The biological activity against HCV NS5B C316Y or S365A mutant is indicated as being †, ††, or \\\, which corresponds to EC50 ranges of EC50>1000 nM, 200 nM<EC50≦1000 nM, […], respectively.

Another assay has as its target T1, HCV NS5B S365A mutant (Hepatitis C virus genotype 1b, UniProt Q9WMX2, S2784A).
T1 construct: HCV NS5B C316Y or S365A mutant as indicated; expressed in transfected cells
Description: Activity against HCV NS5B S365A mutant. The note with it: for EC50: read-out: Inhibiton of HCV NS5B S365A mutant. Here is the method:
as §2

For the next assay, the target named is T2, HCV NS5B C316Y mutant (Hepatitis C virus genotype 1b, UniProt Q9WMX2, C2735Y).
T2 construct: HCV NS5B C316Y or S365A mutant as indicated; expressed in transfected cells
Description: Activity against HCV NS5B C316Y mutant. Particulars: for EC50: read-out: Inhibiton of HCV NS5B C316Y mutant. Here is the method:
as §2

In assay [1] the test system is HCV 1b replication (bicistronic genotype 1b replicon in Huh 7 cells). The assay is described as follows: HCV 1b replicon assay (1b_Huh-Luc/Neo-ET cell line, luciferase readout). Particulars: Hepatitis C virus, Huh-7. The protocol: Biological activity of the compounds of the invention was determined using an HCV replicon assay. The 1b_Huh-Luc/Neo-ET cell line persistently expressing a bicistronic genotype 1b replicon in Huh 7 cells was obtained from ReBLikon GMBH. This cell line was used to test compound inhibition using luciferase enzyme activity readout as a measurement of compound inhibition of replicon levels.
On Day 1 (the day after plating), each compound was added in triplicate to the cells. Plates were incubated for 72 hours prior to running the luciferase assay. Enzyme activity was measured using a Bright-Glo Kit (cat. number E2620) manufactured by Promega Corporation. The following equation was used to generate a percent control value for each compound. % Control=(Average Compound Value/Average Control)*100
The EC50 value was determined using GraphPad Prism and the following equation: Y=Bottom+(Top-Bottom)/(1+10^((Log IC50−X)*HillSlope))
EC50 values of compounds were repeated several times in the replicon assay.
(In general: In antiviral work, replicon cells carry a viral genome segment that copies itself.)

The next assay relates to HCV 1a. Description: HCV 1a replicon assay (similar to the 1b replicon assay). Particulars: Hepatitis C virus; cell marked (HCV genotype 1a replicon); read-out: Inhibition of HCV genotype 1a replicon. The protocol: as §1, §2
[2] abbreviates: numeric EC50, genotype 1b replicon, read-out: Inhibition of HCV genotype 1b replicon (EC50).
The mark [3] stands for this setting: 1b_Huh-Luc/Neo-ET cell line, 72 hours, luciferase readout, read-out: EC50, concentration effective to produce a half-maximal inhibition of HCV 1b replication.
The mark [4] stands for this setting: class symbols, genotype 1b replicon, read-out: Inhibition of HCV genotype 1b replicon.

T2 sequence (Q9WMX2 2420-3010 C2735Y): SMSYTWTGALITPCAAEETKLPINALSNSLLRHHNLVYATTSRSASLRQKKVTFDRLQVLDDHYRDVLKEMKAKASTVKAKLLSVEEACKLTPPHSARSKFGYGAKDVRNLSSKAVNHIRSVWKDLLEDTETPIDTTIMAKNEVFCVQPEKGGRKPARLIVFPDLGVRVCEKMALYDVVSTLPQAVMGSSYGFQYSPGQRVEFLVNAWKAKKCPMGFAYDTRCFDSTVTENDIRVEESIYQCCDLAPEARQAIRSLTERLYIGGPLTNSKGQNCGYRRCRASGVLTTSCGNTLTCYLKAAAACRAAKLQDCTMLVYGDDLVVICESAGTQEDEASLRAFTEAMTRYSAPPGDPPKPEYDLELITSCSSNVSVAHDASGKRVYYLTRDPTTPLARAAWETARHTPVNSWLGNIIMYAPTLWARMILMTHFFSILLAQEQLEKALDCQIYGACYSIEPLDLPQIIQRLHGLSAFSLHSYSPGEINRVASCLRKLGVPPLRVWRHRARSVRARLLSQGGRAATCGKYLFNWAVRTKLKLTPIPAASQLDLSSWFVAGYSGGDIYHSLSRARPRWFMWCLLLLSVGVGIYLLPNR
T1 sequence (Q9WMX2 2420-3010 S2784A): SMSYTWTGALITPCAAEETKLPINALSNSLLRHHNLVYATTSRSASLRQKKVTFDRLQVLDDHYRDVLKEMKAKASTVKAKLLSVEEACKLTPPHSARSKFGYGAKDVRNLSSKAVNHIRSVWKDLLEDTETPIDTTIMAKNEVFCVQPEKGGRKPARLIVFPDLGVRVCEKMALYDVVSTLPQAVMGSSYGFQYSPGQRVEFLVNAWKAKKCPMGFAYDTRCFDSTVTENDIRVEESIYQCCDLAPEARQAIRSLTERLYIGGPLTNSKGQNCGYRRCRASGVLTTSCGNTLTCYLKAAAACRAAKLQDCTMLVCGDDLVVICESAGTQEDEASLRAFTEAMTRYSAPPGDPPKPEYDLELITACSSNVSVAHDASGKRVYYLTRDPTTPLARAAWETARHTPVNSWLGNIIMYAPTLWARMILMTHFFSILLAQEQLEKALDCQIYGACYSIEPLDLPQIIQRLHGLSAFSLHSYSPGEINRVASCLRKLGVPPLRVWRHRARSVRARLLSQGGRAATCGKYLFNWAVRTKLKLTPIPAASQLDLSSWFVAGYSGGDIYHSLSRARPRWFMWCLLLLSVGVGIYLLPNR

For the compound `CNC(=O)c1c(-c2ccc(F)cc2)oc2cc3c(cc12)C=CCCN3S(C)(=O)=O` [Compound B12], the EC50 with HCV 2a lay in the range of 100 to 1000 nM.

Consider `C=C1CCCCN(S(C)(=O)=O)c2cc3oc(-c4ccc(F)cc4)c(C(=O)NC)c3cc21` [Compound B75], for which the EC50 in the assay with HCV 2a was 100 to 1000 nM.

Take `CNC(=O)c1c(-c2ccc(Oc3ccc(F)cc3)cc2)oc2cc3c(cc12)[C@H](C)OC1(CC1)CN3S(C)(=O)=O` (single isomer, unassigned) [Compound B187]: the EC50 on HCV NS5B S365A mutant and on HCV NS5B C316Y mutant was over 1000 nM in each case.

Take `CNC(=O)c1c(-c2ccc(F)cc2)oc2cc3c(cc12)[C@H](C)CCCN3S(C)(=O)=O` (single isomer, unassigned) [Compound B15]: the “Inhibiton of HCV NS5B S365A mutant” value on HCV NS5B S365A mutant is “†††”. The “Inhibiton of HCV NS5B C316Y mutant” value at HCV NS5B C316Y mutant is given as “†††”. Also, in assay [1] (setting [2]), the EC50 came to 5.5 nM.

For the compound `CNC(=O)c1c(-c2ccc(F)cc2)oc2cc3c(cc12)C(C)N(CCO)CCN3S(C)(=O)=O` (centres unmarked) [Compound B145], at HCV NS5B S365A mutant, the EC50 lay in the range of 200 to 1000 nM.

`CNC(=O)c1c(-c2ccc(F)cc2)oc2cc3c(cc12)[C@H](C)OCCN3S(C)(=O)=O` [Compound B45]: on HCV NS5B S365A mutant, the “Inhibiton of HCV NS5B S365A mutant” value is “†††”. Moreover, the “Inhibiton of HCV NS5B C316Y mutant” value at HCV NS5B C316Y mutant is recorded as “†††”. The EC50 in assay [1] (setting [2]) came out at 3 nM.

For the compound `CC1OCCN(S(C)(=O)=O)c2cc3oc(-c4ccc(F)cc4)c(-c4ncc[nH]4)c3cc21` (centres unmarked) [Compound B197], the EC50 on HCV NS5B S365A mutant lay in the range of 200 to 1000 nM.

Turning to `CNC(=O)c1c(-c2ccc(F)cc2)oc2cc3c(cc12)[C@@H](C)OCCN3S(C)(=O)=O` [Compound B44], in the assay on HCV 2a, the EC50 lay in the range of 100 to 1000 nM.

Consider `C=C1CCCN(S(C)(=O)=O)c2cc3nc(-c4ccc(F)cc4)c(C(=O)NC)n3cc21` [Compound B61], for which, in the assay with HCV 2a, the EC50 was over 1000 nM.

With `CS(=O)(=O)N1CCCCc2cc3c(-c4ncc[nH]4)c(-c4ccc(F)cc4)oc3cc21` [Compound B67], the EC50 at HCV NS5B S365A mutant is 200 to 1000 nM.

As for `CNC(=O)c1c(-c2ccc(F)cc2)oc2cc3c(cc12)[C@H](C)OC(C)(C)CN3S(C)(=O)=O` (single isomer, unassigned) [Compound B184], the EC50 at HCV NS5B S365A mutant is 200 to 1000 nM; at HCV NS5B C316Y mutant, over 1000 nM.

Regarding `CS(=O)(=O)N1CCCCc2cc3c(C(N)=O)c(-c4ccc(F)cc4)oc3cc21` [Compound B13], in the assay with HCV 2a, the EC50 was over 1000 nM.

In the case of `CN(C)CCNC(=O)c1c(-c2ccc(F)cc2)oc2cc3c(cc12)CCCCN3S(C)(=O)=O` [Compound B42], the EC50 in the assay on HCV 2a was over 1000 nM.

On to `CNC(=O)c1c(-c2ccc(F)cc2)nc2cc3c(cn12)C(C)=CCCN3S(C)(=O)=O` [Compound B62], for which the EC50 with HCV 2a was over 1000 nM.

For `CS(=O)(=O)N1CCCCc2cc3c(C(=O)NCC#N)c(-c4ccc(F)cc4)oc3cc21` [Compound B43], the EC50 in the assay on HCV 2a was over 1000 nM.

In the case of `CNC(=O)c1c(-c2ccc(F)cc2)oc2cc3c(cc12)[C@H](C)OC1(CC1)CN3S(C)(=O)=O` (single isomer, unassigned) [Compound B193], the EC50 at HCV NS5B S365A mutant and on HCV NS5B C316Y mutant was 200 to 1000 nM throughout.

In the case of `CNC(=O)c1c(-c2ccc(F)cc2)oc2cc3c(cc12)/C=C\CCCN3S(C)(=O)=O` [Compound B114], the EC50 in the assay with HCV 1a is 100 to 1000 nM.

In the case of `CN(C)C(=O)c1c(-c2ccc(F)cc2)oc2cc3c(cc12)CCCCN3S(C)(=O)=O` [Compound B14], the EC50 in the assay with HCV 2a was over 1000 nM.

In the case of `CC1c2cc3c(-c4ncc[nH]4)c(-c4ccc(F)cc4)oc3cc2N(S(C)(=O)=O)CCN1C` (centres unmarked) [Compound B171], on HCV NS5B S365A mutant, the EC50 is 200 to 1000 nM.

`CNC(=O)c1c(-c2ccc(Oc3ccc(F)cc3)cc2)oc2cc3c(cc12)[C@H](C)OC(C)(C)CN3S(C)(=O)=O` (single isomer, unassigned) [Compound B176]: the EC50 on HCV NS5B S365A mutant and on HCV NS5B C316Y mutant was 200 to 1000 nM throughout.

Take `CNC(=O)c1c(-c2ccccc2F)oc2cc3c(cc12)C(C)=CCCN3S(C)(=O)=O` [Compound B32]: the EC50 in assay [1] (setting [3]) and in assay [1] (setting [4]) was 10 to 100 nM each time.

In the case of `CNC(=O)c1c(-c2ccc(F)cc2)oc2cc3c(cc12)[C@H](C)O[C@H](COC(=O)COCCOCCOCCOC)CN3S(C)(=O)=O` [Compound B258], the values for the EC50 in assay [1] (setting [3]) and in assay [1] (setting [4]) were at most 10 nM and under 10 nM, respectively.

Take `CN/C(=N\O)c1c(-c2ccc(F)cc2)oc2cc3c(cc12)[C@H](C)O[C@H](CS(C)(=O)=O)CN3S(C)(=O)=O` [Compound B283]: the EC50 in assay [1] (setting [4]) lay within 100 to 1000 nM.

On to `CNC(=O)c1c(-c2ccc(Oc3ccc(F)cc3)cc2)oc2cc3c(cc12)[C@H](C)O[C@H](COC(=O)CCC(=O)O)CN3S(C)(=O)=O` [Compound B245], for which the EC50 was at most 10 nM in assay [1] (setting [3]) and under 10 nM in assay [1] (setting [4]).

Turning to `CNC(=O)c1c(-c2ccc(F)cc2)oc2cc3c(cc12)[C@@H](C)CCCN3S(C)(=O)=O` [Compound B16], the EC50 in assay [1] (setting [3]) is 10 to 100 nM; in assay [1] (setting [2]), 45.7 nM.

Take `CS(=O)(=O)N1CCCCc2cc3c(C(=O)NC4CC4)c(-c4ccc(F)cc4)oc3cc21` [Compound B41]: in the assay on HCV 2a, the EC50 is over 1000 nM.

As for `CNC(=O)c1c(-c2ccc(Oc3ccc(F)cc3)cc2)nn2cc3c(cc12)C(C)OC(CS(C)(=O)=O)CN3S(C)(=O)=O` (centres unmarked) [Compound B251], the EC50 in assay [1] (setting [4]) was 10 to 100 nM.

Regarding `CNC(=O)c1c(-c2ccc(F)cc2)oc2cc3c(cc12)CCN3S(C)(=O)=O` [Compound B21], in assay [1] (setting [4]), the EC50 lay within 100 to 1000 nM.

Turning to `CNC(=O)c1c(-c2ccc(F)cc2)oc2cc3c(cc12)[C@H](C)O[C@H](COC(=O)[C@@H]1CCCN1)CN3S(C)(=O)=O` [Compound B266], the values for the EC50 in assay [1] (setting [3]) and in assay [1] (setting [4]) were at most 10 nM and under 10 nM, respectively.

As to `CNC(=O)c1c(-c2ccc(F)cc2)nn2cc3c(cc12)C(C)OC(CS(C)(=O)=O)CN3S(C)(=O)=O` (centres unmarked) [Compound B247], the EC50 in assay [1] (setting [3]) was at most 10 nM; in assay [1] (setting [4]) it was 10 to 100 nM.

Turning to `CNC(=O)c1c(-c2ccc(F)cc2)oc2cc3c(cc12)[C@H](C)O[C@H](COC(=O)[C@@H](C)N)CN3S(C)(=O)=O` [Compound B273], the EC50 is at most 10 nM in assay [1] (setting [3]) and under 10 nM in assay [1] (setting [4]).

As for `CNC(=O)c1c(-c2ccc(F)cc2)oc2cc3c(cc12)[C@H](C)O[C@H](COC(=O)[C@H](N)C(C)C)CN3S(C)(=O)=O` [Compound B282], the EC50 was at most 10 nM in assay [1] (setting [3]) and under 10 nM in assay [1] (setting [4]).

On to `CNC(=O)c1c(-c2ccc(F)cc2)oc2cc3c(cc12)[C@H](C)O[C@H](COC(=O)[C@@H](N)Cc1cnc[nH]1)CN3S(C)(=O)=O` [Compound B277], for which the values for the EC50 in assay [1] (setting [3]) and in assay [1] (setting [4]) were at most 10 nM and under 10 nM, respectively.

Consider `C=C1CCCN(S(C)(=O)=O)c2cc3oc(-c4ccccc4F)c(C(=O)NC)c3cc21` [Compound B31], for which the EC50 in assay [1] (setting [3]) and in assay [1] (setting [4]) was 10 to 100 nM throughout.

On to `CNC(=O)c1c(-c2ccc(F)cc2)oc2cc3c(cc12)[C@H](C)O[C@H](COC(=O)CN(C)C)CN3S(C)(=O)=O` [Compound B252], for which the values for the EC50 in assay [1] (setting [3]) and in assay [1] (setting [4]) were at most 10 nM and under 10 nM, respectively.

For the compound `CNC(=O)c1c(-c2ccc(F)cc2)oc2cc3c(cc12)[C@H](C)N(C)C(=O)CN3S(C)(=O)=O` (single isomer, unassigned) [Compound B179], at HCV NS5B S365A mutant, the EC50 was in the range of 200 to 1000 nM.

`CNC(=O)c1c(-c2ccc(F)cc2)oc2cc3c(cc12)[C@H](C)O[C@H](COC(=O)[C@@H](N)CO)CN3S(C)(=O)=O` [Compound B281]: the figures for the EC50 in assay [1] (setting [3]) and in assay [1] (setting [4]) were at most 10 nM and under 10 nM, respectively.

As for `CNC(=O)c1c(-c2ccc(F)cc2F)oc2cc3c(cc12)C(C)CCCN3S(C)(=O)=O` (centres unmarked) [Compound B35], the EC50 was at most 10 nM in assay [1] (setting [3]) and under 10 nM in assay [1] (setting [4]).
